Laboratory results reported in US20130310355A1, “LOW TOXICITY TOPICAL ACTIVE AGENT DELIVERY SYSTEM” (YOUNG PHARMACEUTICALS, INC., priority 2009, published 2013).

Assay: Solubilization of retinol in cyclomethicone alone
Type: physicochemical
Settings: retinol 0.1-0.2% w/v in cyclomethicone alone
Excerpt: Volatile organosiloxanes optionally are lightweight carriers that evaporate on application and thus have an elegant, light-weight “feel” on the skin. Volatile organosiloxanes, however, are typically limited in their ability to dissolve low polarity (i.e. usually greater than C7-C8)) organic compounds like retinoids. […] To address this issue vehicles were sought that would be both capable of creating clear solutions of active agent in a volatile organosiloxane carrier, but also have an appropriate evaporation rate in combination with the volatile organosiloxane when placed on the skin so as maintain the light-weight feel on the skin experienced by a user. A vehicle must also not promote unacceptable skin irritation when used at the concentration necessary in the composition.

Appearance of solution: hazy solutions
SMILES: CC1=C(/C=C/C(C)=C/C=C/C(C)=C/CO)C(C)(C)CCC1 [retinol]
